From patent US10202378B2, “Therapeutic compounds and uses thereof” (GENENTECH, INC., priority 2015, dated 2019)

Columns and labels:
TAF1-BD2 = TAF1-BD2 (Homo sapiens, UniProt P21675); experiment: TAF1-BD2 TR-FRET Binding Assay; conditions: read-out: TAF1-BD2 HTRF IC50
Protocol: IC50 Measurements for Inhibitors Using TAF1-BD2 TR-FRET Binding Assay
His/Flag epitope tagged TAF1-BD21504-1635 was cloned, expressed, and purified to homogeneity. TAF1-BD2 binding and inhibition was assessed by monitoring the engagement of a biotinylated small molecule compound 1000 with the target using the TR-FRET assay technology (Perkin-Elmer). Specifically, in a 384 well ProxiPlate, TAF1-BD2 (0.012 uM final) in 50 mM HEPES (pH 7.5; final), 50 mM NaCl (final), 1 mM TCEP (final), 0.1 mg/mL BSA (final), and 0.069 mM Brij-35 (final) was added either in the presence of DMSO (final 0.2% DMSO) or compound dilution series in DMSO. After a 10 minute incubation at room temperature, biotin-ligand (0.04 uM final) was added. After 10 minutes incubation at room temperature, a mixture Eu-W1024 Anti-6×His antibody (Perkin Elmer AD0110) and SureLight™ Streptavidin-Allophycocyanin (SA-APC, Perkin Elmer CR130-100) were added to a final concentration of 0.2 nM antibody and 0.025 uM SA-APC, respectively. After forty minutes of equilibration at room temperature, the plates were read on an Envision instrument and IC50s calculated using a four parameter logistic model (XLFIT).

TAF1-BD1 = TAF1-BD1 (Homo sapiens, UniProt P21675); experiment: TAF1-BD1 TR-FRET Binding Assay; conditions: read-out: TAF1-BD1 HTRF IC50
Protocol: IC50 Measurements for Inhibitors Using TAF1-BD1 TR-FRET Binding Assay
His/Flag epitope tagged TAF1-BD11381-1497 was cloned, expressed, and purified to homogeneity. TAF1-BD binding and inhibition was assessed by monitoring the engagement of a biotinylated small molecule compound 1000 with the target using the TR-FRET assay technology (Perkin-Elmer). Specifically, in a 384 well ProxiPlate, TAF1-BDI (0.08 uM final) in 50 mM HEPES (pH 7.5; final), 50 mM NaCl (final), 1 mM TCEP (final), 0.1 mg/mL BSA (final), and 0.069 mM Brij-35 (final) was added either in the presence of DMSO (final 0.2% DMSO) or compound dilution series in DMSO. After a 10 minute incubation at room temperature, biotin-ligand (0.08 uM final) was added. After 10 minutes incubation at room temperature, a mixture Eu-W1024 Anti-6×His antibody (Perkin Elmer ADO 110) and SureLight™ Streptavidin-Allophycocyanin (SA-APC, Perkin Elmer CR130-100) were added to final concentrations of 0.2 nM antibody and 0.05 uM SA-APC, respectively. After forty minutes of equilibration at room temperature, the plates were read on an Envision instrument and IC50s calculated using a four parameter logistic model (XLFIT).

IC50 (TAF1-BD2)	IC50 (TAF1-BD1)	SMILES
17 nM	226 nM	CCOC(=O)c1c(C)[nH]c2c(=O)n(C)cc(C#CC(O)(c3cccc(-c4cc[nH]n4)c3)C(F)(F)F)c12 (stereo not shown) [Example 44, ethyl 2,6-dimethyl-7-oxo-4-[4,4,4-trifluoro-3-hydroxy-3-[3-(1H-pyrazol-3-yl)phenyl]but-1-ynyl]-1H-pyrrolo[2,3-c]pyridine-3-carboxylate]
74.7 nM	271 nM	CCOC(=O)c1c(C)[nH]c2c(=O)n(C)cc(C#CC(O)(C3CC3)C(F)(F)F)c12 (stereo not shown) [Example 45, ethyl 4-(3-cyclopropyl-4,4,4-trifluoro-3-hydroxy-but-1-ynyl)-2,6-dimethyl-7-oxo-1H-pyrrolo[2,3-c]pyridine-3-carboxylate]
133 nM	2230 nM	C=CCCn1cc(C#CC(C)(O)C2CC2)c2c(C(=O)OCC)c(C)[nH]c2c1=O (stereo not shown) [Example 46, ethyl 6-but-3-enyl-4-(3-cyclopropyl-3-hydroxy-but-1-ynyl)-2-methyl-7-oxo-1H-pyrrolo[2,3-c]pyridine-3-carboxylate]
368 nM	4900 nM	C=CCCn1cc(C#CC(C)(C)CO)c2c(C(=O)OCC)c(C)[nH]c2c1=O [Example 47, ethyl 6-but-3-enyl-4-(4-hydroxy-3,3-dimethyl-but-1-ynyl)-2-methyl-7-oxo-1H-pyrrolo[2,3-c]pyridine-3-carboxylate]
312 nM	1280 nM	C=CCCn1cc(C#CC(C)(C)C(N)=O)c2c(C(=O)OCC)c(C)[nH]c2c1=O [Example 48, ethyl 4-(4-amino-3,3-dimethyl-4-oxo-but-1-ynyl)-6-but-3-enyl-2-methyl-7-oxo-1H-pyrrolo[2,3-c]pyridine-3-carboxylate]
116 nM	2850 nM	C=CCCn1cc(C#CC(C)(C)O)c2c(C(=O)OCC)c(C)[nH]c2c1=O [Example 49, ethyl 6-but-3-enyl-4-(3-hydroxy-3-methyl-but-1-ynyl)-2-methyl-7-oxo-1H-pyrrolo[2,3-c]pyridine-3-carboxylate]
450 nM	9870 nM	CCOC(=O)c1c(C)[nH]c2c(=O)n(CC)cc(C#CC(C)(C)O)c12 [Example 50, ethyl 6-ethyl-4-(3-hydroxy-3-methyl-but-1-ynyl)-2-methyl-7-oxo-1H-pyrrolo[2,3-c]pyridine-3-carboxylate]
227 nM	7200 nM	C=CCn1cc(C#CC(C)(C)O)c2c(C(=O)OCC)c(C)[nH]c2c1=O [Example 51, ethyl 6-allyl-4-(3-hydroxy-3-methyl-but-1-ynyl)-2-methyl-7-oxo-1H-pyrrolo[2,3-c]pyridine-3-carboxylate]
95.2 nM	859 nM	CCOC(=O)c1c[nH]c2c(=O)n(C)cc(C#CC(C)(C)O)c12 [Example 53, ethyl 4-(3-hydroxy-3-methyl-but-1-ynyl)-6-methyl-7-oxo-1H-pyrrolo[2,3-c]pyridine-3-carboxylate]
122 nM	179 nM	Cc1cc([C@](C)(O)C#Cc2cn(C)c(=O)c3[nH]cc(C(=O)OCC(C)C)c23)no1 [Example 54, isobutyl 4-[(3R)-3-hydroxy-3-(5-methylisoxazol-3-yl)but-1-ynyl]-6-methyl-7-oxo-1H-pyrrolo[2,3-c]pyridine-3-carboxylate]
74 nM	457 nM	CCOC(=O)c1c(C)[nH]c2c(=O)n(C)cc(C#Cc3ccccc3)c12 [Example 55, ethyl 2,6-dimethyl-7-oxo-4-(2-phenylethynyl)-1H-pyrrolo[2,3-c]pyridine-3-carboxylate]
129 nM	337 nM	CCOC(=O)c1c(C)[nH]c2c(=O)n(C)cc(C#Cc3cncn3C)c12 [Example 56, ethyl 2,6-dimethyl-4-[2-(3-methylimidazol-4-yl)ethynyl]-7-oxo-1H-pyrrolo[2,3-c]pyridine-3-carboxylate]
59.6 nM	> 20000 nM	CCOC(=O)c1c(C)[nH]c2c(=O)n(C)cc(C#Cc3ccccc3OC(F)(F)F)c12 [Example 57, ethyl 2,6-dimethyl-7-oxo-4-[2-[2-(trifluoromethoxy)phenyl]ethynyl]-1H-pyrrolo[2,3-c]pyridine-3-carboxylate]
38.4 nM	315 nM	CCOC(=O)c1c(C)[nH]c2c(=O)n(C)cc(C#Cc3ccc(OC)cc3)c12 [Example 58, ethyl 4-[2-(4-methoxyphenyl)ethynyl]-2,6-dimethyl-7-oxo-1H-pyrrolo[2,3-c]pyridine-3-carboxylate]
56.2 nM	> 2220 nM	CCOC(=O)c1c(C)[nH]c2c(=O)n(C)cc(C#Cc3ccccc3F)c12 [Example 59, ethyl 4-[2-(2-fluorophenyl)ethynyl]-2,6-dimethyl-7-oxo-1H-pyrrolo[2,3-c]pyridine-3-carboxylate]
38.1 nM	120 nM	CCOC(=O)c1c(C)[nH]c2c(=O)n(C)cc(C#Cc3cccc(N)c3)c12 [Example 60, ethyl 4-[2-(3-aminophenyl)ethynyl]-2,6-dimethyl-7-oxo-1H-pyrrolo[2,3-c]pyridine-3-carboxylate]
47.7 nM	292 nM	CCOC(=O)c1c(C)[nH]c2c(=O)n(C)cc(C#Cc3cccnc3)c12 [Example 61, ethyl 2,6-dimethyl-7-oxo-4-[2-(3-pyridyl)ethynyl]-1H-pyrrolo[2,3-c]pyridine-3-carboxylate]
57.9 nM	402 nM	CCOC(=O)c1c(C)[nH]c2c(=O)n(C)cc(C#Cc3ccsc3)c12 [Example 62, ethyl 2,6-dimethyl-7-oxo-4-[2-(3-thienyl)ethynyl]-1H-pyrrolo[2,3-c]pyridine-3-carboxylate]
38.5 nM	195 nM	CCOC(=O)c1c(C)[nH]c2c(=O)n(C)cc(C#Cc3cccc(O)c3)c12 [Example 63, ethyl 4-[2-(3-hydroxyphenyl)ethynyl]-2,6-dimethyl-7-oxo-1H-pyrrolo[2,3-c]pyridine-3-carboxylate]
160 nM	502 nM	CCOC(=O)c1c(C)[nH]c2c(=O)n(C)cc(C#C[C@@](C)(O)c3nnc(C)o3)c12 [Example 64, ethyl 4-[(3R)-3-hydroxy-3-(5-methyl-1,3,4-oxadiazol-2-yl)but-1-ynyl]-2,6-dimethyl-7-oxo-1H-pyrrolo[2,3-c]pyridine-3-carboxylate]
61 nM	210 nM	CCOC(=O)c1c(C)[nH]c2c(=O)n(C)cc(C#C[C@@](C)(O)c3cc(C)no3)c12 [Example 69, ethyl 4-[(3R)-3-hydroxy-3-(3-methylisoxazol-5-yl)but-1-ynyl]-2,6-dimethyl-7-oxo-1H-pyrrolo[2,3-c]pyridine-3-carboxylate]
82.3 nM	515 nM	CCOC(=O)c1c(C)[nH]c2c(=O)n(C)cc(C#CC(C)(O)C(C)C)c12 (stereo not shown) [Example 70, ethyl 4-(3-hydroxy-3,4-dimethyl-pent-1-ynyl)-2,6-dimethyl-7-oxo-1H-pyrrolo[2,3-c]pyridine-3-carboxylate]
190 nM	2510 nM	C=CCCn1cc(C#C[C@](C)(O)c2cc(C)on2)c2c(C(=O)OCC)c(C)[nH]c2c1=O [Example 71, ethyl 6-but-3-enyl-4-[(3S)-3-hydroxy-3-(5-methylisoxazol-3-yl)but-1-ynyl]-2-methyl-7-oxo-1H-pyrrolo[2,3-c]pyridine-3-carboxylate]
181 nM	> 20000 nM	C=CCCn1cc(C#CC(C)(O)CC#N)c2c(C(=O)OCC)c(C)[nH]c2c1=O (stereo not shown) [Example 72, ethyl 6-but-3-enyl-4-(4-cyano-3-hydroxy-3-methyl-but-1-ynyl)-2-methyl-7-oxo-1H-pyrrolo[2,3-c]pyridine-3-carboxylate]
69.5 nM	287 nM	CCOC(=O)c1c(C)[nH]c2c(=O)n(C)cc(C#CC(O)(c3ccccc3)C(F)(F)F)c12 (stereo not shown) [Example 73, ethyl 2,6-dimethyl-7-oxo-4-(4,4,4-trifluoro-3-hydroxy-3-phenyl-but-1-ynyl)-1H-pyrrolo[2,3-c]pyridine-3-carboxylate]
209 nM	2040 nM	CCOC(=O)c1c(C)[nH]c2c(=O)n(C)cc(C#CC3(O)CCN(C)C3=O)c12 (stereo not shown) [Example 74, ethyl 4-[2-(3-hydroxy-1-methyl-2-oxo-pyrrolidin-3-yl)ethynyl]-2,6-dimethyl-7-oxo-1H-pyrrolo[2,3-c]pyridine-3-carboxylate]
